The text below walks through data of patent US20040151618A1, “Method of increasing the conductivity of water and uses therefor” (priority 2002, published 2004).

In data set [1] the test system is grass. Description: Plant growth retarder: patch of grass sprayed (Example 9). Type of data set: in vivo. To be noted: sprayed with water with 10% by weight sodium benzoate, 24 hours. An excerpt: A patch of grass about two feet in diameter was sprayed with water having a 10% concentration by weight of sodium benzoate . At the time that the water having the 10% concentration of sodium benzoate was sprayed on this patch of grass the sprayed patch as well as the surrounding grass areas were green and healthy looking.

Data set [2] relates to mold. Description: Mold on dry dog food sprayed with solution (Example 4). Type of data set: cell-based. To be noted: dry dog food sprayed with water with 1% sodium benzoate, three months.
Data set [3] is described as follows: Iron count of applicant after daily drinking of the solution. Type of data set: in vivo, human. To be noted: daily drinking of 0.1% solution blended in fruit juice. An excerpt:
Furthermore, as a result of the higher conductivity of the sodium benzoate solution its electrical resistance is reduced which stabilizes organic colors and prevents their reversion. […] Also, in the pulp and paper industry the brightness of pulp is enhanced which is a result of applicant's solution impeding the deposition of iron. Also, impeding the iron content in drinking water can help to prevent an iron overload problem in humans and animals. Iron overload can result in cellular degradation that is similar to the rusting of a nail. Applicant's sodium benzoate solution can be used to prevent oxygen free radical degradation in humans and animals. Excess iron in human is very dangerous. Human consumption of applicant's solution could prevent hemochromatosis and the need for phlebotomy.

The test system of data set [4] is psychrotrophic microorganisms. In words: Count of psychrotrophic microorganisms in minced cod fish fillets stored at 1-2° C. (Plate Count Agar, pour-plate). As to conditions: for Count of psychrotrophic microorganisms in sample with 1% Sodium Benzoate solution: Example 11; for Count of psychrotrophic microorganisms in sample with 0.1% Sodium Benzoate solution: Example 12. Set-up: Count of psychrotrophic microorganisms in sample with 0.1% Sodium Benzoate solution: unit not given here. Type of data set: cell-based. As for the experimental part: Cod fish fillets which were frozen at sea were thawed and minced. The minced fillets were divided into two 200 gram portions. To one portion, 20 milliliters of sterile, deionized water was added (10%) and to the other 20 milliliters of the sodium benzoate solution of this invention containing 1% benzoate was added. Both portions were stirred and then placed at 1-2° C. for storage. Samples were taken 2 hours, 7 days and 14 days after mixing. Counts of psychrothrophic microorganisms was done on Plate Count Agar with 0.5% NaCl added by the pour-plate technique. Plated were incubated at 22° C. for 3 days prior to counting colonies. When a nutrient agar-type medium is incubated, using the streak-plate or pour-plate method, cells are individually separated. In incubation, individual cells reproduce rapidly to generate a visible colony of cells, each colony being a pure sample of a single kind of microorganism.
In the above example, a 1% sodium benzoate solution was used, which is considered to be a stronger than acceptable for a food product, and thus a further tests were performed. In these second tests cod fish fillets which were frozen at sea were thawed and minced. The minced fillets were divided into two 200 gram portions. To one portion, 2 milliliters of sterile, deionized water was added and to the other […] of the sodium benzoate solution of this invention containing 0.1% benzoate was added. As a result in this test the other portion contained only 10% of the amount of benzoate as was in EXAMPLE 11. In other words EXAMPLE 11 was a 1% sodium benzoate solution and EXAMPLE 12 is a 0.1% sodium benzoate solution. Both portions were stirred and then placed at 1-2° C. for storage. Samples were taken 2 hours, 7 days, 14 days and 18 after mixing. Counts of psychrothrophic microorganisms was done on Plate Count Agar with 0.5% NaCI added by the pour-plate technique. Plated were incubated at 22° C. for 3 days prior to counting colonies.

In data set [5] the test system is mold. In words: Mold on cornstarch immersed in solution (Example 3). Type of data set: cell-based. As to conditions: cornstarch in water with 1% sodium benzoate, four weeks.
The test system of data set [6] is growing plant having green leaves and small white flowers. Description: Plant growth retarder: isolated growing plant sprayed (Example 7). As to conditions: sprayed with water with 10% sodium benzoate, after six hours. Type of data set: in vivo. An excerpt:
A growing plant having green leaves and small white flowers was isolated from other plants of the same type. the isolated plant was sprayed with water having a 10% concentration of sodium benzoate. The other plants were not treated.

For data set [7], the system named is large potted plants having green leaves and red flowers. In words: Plant growth retarder: large potted plants watered (Example 10). As to conditions: watered with water with 10% by weight sodium benzoate. Type of data set: in vivo. An excerpt:
Three large potted plants having green leaves and red flowers, each plant was about 3 feet tall, were utilized for this EXAMPLE. The three plants were aligned adjacent to each other in a sunny area. The large potted plant to the left was watered with tap water and the plants in the center and to the right were watered with water having a 10% concentration by weight of sodium benzoate. Two days after watering these three large potted plants, the plant to the left retained its green leaves and red flowers. However, the large plant in the center and the one to the right had undergone change. […] Four days after watering the plants the large plant in the center and the one to the right had undergone further change. […] The plant to the left retained its green leaves and red flowers.

Data set [8] has as its system mold. Description: Mold and odor on treated wet lap pulp (Example 5). Type of data set: cell-based. As to conditions: wet lap pulp treated with water with 1% sodium benzoate, almost a year. An excerpt:
A like portion of wet lap pulp from the same batch as the above wet lap pulp was not treated (wet lap pulp is moist and contains tap water) but was isolated for observation and comparison.

Data set [9] relates to potted plants each having green leaves and violet colored flowers. In words: Plant growth retarder: potted plant watered (Example 8). As to conditions: watered with water with 10% sodium benzoate, after three days. Type of data set: in vivo. An excerpt:
Two similar potted plants each having green leaves and violet colored flowers were obtained for this example. One of the potted plants was watered with tap water and at the same time the other potted plant was watered with water that contained a 10% concentration of sodium benzoate.

In data set [10] the test system is mold. Description: Mold in opened cranberry-raspberry drink (Example 6). As to conditions: drink with about 1.9% sodium benzoate, three weeks. Type of data set: cell-based. The method, then:
A commercially available 16 ounce bottle of cranberry-raspberry drink was opened and one ounce of water having a 30% concentrations of sodium benzoate was added to the contents of the bottle. The resulting cranberry-raspberry drink thus had about a 1.9% concentration of sodium benzoate. A second bottle of the same commercially available drink was opened but not treated in any way.

Data set [11] can be described thus: Electrical conductivity of tap water with varying concentrations of sodium benzoate. To be noted: 10% sodium benzoate plus ingredient that improves adhesion. Type of data set: physicochemical. As for the experimental part:
Tests were conducted to measure the electrical conductivity of tap water with varying concentrations of sodium benzoate. In these tests the conductivity has been measured in micromho/cm. One micromho/cm (UMHO/CM) equals one microsiemens/cm (US/CM). In other words a micromho is the same as a microsiemen.
In preparing a 1% solution of applicants solution 37.84 grams of sodium benzoate were dissolved in one gallon of tap water which weighs 3,784 grams. […] The conductivity of the various samples of applicant's invention that were subjected to these tests had conductivities ranging from 635 to 34,500 UMHO/CM. […] For solutions of other strengths, proportional amounts of sodium benzoate were added to a gallon of water. This invention is concerned with concentrations of sodium benzoate in the range of about 0.1% and greater. The current test results have been limited to a maximum concentration of about 10%.

Where [12] appears, read: 0 days at 1-2° Centigrade (sample 2 hours after mixing).

The structures appear in SMILES notation.

With `O=C([O-])c1ccccc1.[Na+]` [Sodium Benzoate, sodium benzoate], the “Growth Stunned” value is “appeared straw like and there was no longer any green appearing” in data set [1]; “shriveled and dried up” in [6]; “remains of the flowers were now brown and only a few brown leaves remained on the branches” in data set [7] (four days after watering); “weathered and dried up” in [9]. Besides, the “No Mold” value in data set [2] is “no evidence of mold”; in data set [5], “no evidence of mold”; in data set [8], “no evidence of mold or odor”; in data set [10], “no evidence of mold”. In addition, in data set [3], the Iron count entry was “reduced to normal levels”. Besides, the “Shelf life of fresh seafood maintained at 1-2° C.” value in data set [4] (0.1% sodium benzoate solution) and in [4] (1% sodium benzoate solution) was “at least 14 days” throughout. Besides, the entries for the “Count of psychrotrophic microorganisms in sample with 1% Sodium Benzoate solution” value in data set [4] (setting [12]), in [4] (7 days at 1-2° Centigrade) and in data set [4] (14 days at 1-2° Centigrade) were 5, 4.8 and 5.2, respectively. The “Count of psychrotrophic microorganisms in sample with 0.1% Sodium Benzoate solution” value is listed as 4.21 in [4] (setting [12]), 4.79 in data set [4] (7 days at 1-2° Centigrade), 6.17 in [4] (14 days at 1-2° Centigrade) and 8.09 in data set [4] (18 days at 1-2° Centigrade). For the same compound, in data set [7] (two days after watering), the Appearance of plants entry is “flowers were no longer red and instead appeared pink and white and the leaves were drooping and were a much lighter shade of green”. Besides, the “Conductivity of 10% solution with coating additive compared with 10% solution without” value in data set [11] is on record as “substantially the same”.
